ChEMBL document CHEMBL3112450, “Synthesis and in vitro antitumor evaluation of primary amine substituted quinazoline linked benzimidazole” (Bioorg Med Chem Lett, 2014)

Experiments:
Assay type in all cases: functional
SF-295 = experiment: Cytotoxicity against human SF295 cells assessed as cell growth at 10^-6 M after 48 hrs by SRB assay; details: SF-295, 48 h, read-out: Activity
CCRF-CEM = experiment: Cytotoxicity against human CCRF-CEM cells after 48 hrs by SRB assay
HCT-15 = experiment: Cytotoxicity against human HCT15 cells assessed as cell growth at 10^-5 M after 48 hrs by SRB assay; details: HCT-15, 48 h, read-out: Activity
[1] = Cytotoxicity against human Hs578T cells after 48 hrs by SRB assay; details: Hs-578T
[2] = Cytotoxicity against human Hs578T cells assessed as cell growth at 10^-5 M after 48 hrs by SRB assay; details: Hs-578T, read-out: Activity
MDA-MB-468 [3] = experiment: Cytotoxicity against human MDA-MB-468 cells assessed as cell growth at 10^-7 M after 48 hrs by SRB assay; details: MDA-MB-468, 48 h, read-out: Activity
HL-60(TB) = experiment: Cytotoxicity against human HL-60(TB) cells assessed as cell growth at 10^-5 M after 48 hrs by SRB assay; details: HL-60, 48 h, read-out: Activity
HT-29 = experiment: Cytotoxicity against human HT-29 cells assessed as cell growth at 10^-5 M after 48 hrs by SRB assay; details: HT-29, 48 h, read-out: Activity
NCI-H322M [4] = experiment: Cytotoxicity against human NCI-H322M cells after 48 hrs by SRB assay
K562 [5] = experiment: Cytotoxicity against human K562 cells assessed as cell growth at 10^-4 M after 48 hrs by SRB assay; details: K562, 48 h, read-out: Activity
NCI-H322M [6] = experiment: Cytotoxicity against human NCI-H322M cells assessed as cell growth at 10^-5 M after 48 hrs by SRB assay; details: read-out: Activity
NCI-H23 = experiment: Cytotoxicity against human NCI-H23 cells assessed as cell growth at 10^-5 M after 48 hrs by SRB assay; details: NCI-H23, 48 h, read-out: Activity
SR = experiment: Cytotoxicity against human SR cells assessed as cell growth at 10^-5 M after 48 hrs by SRB assay; details: read-out: Activity
[7] = Cytotoxicity against human UACC257 cells assessed as cell growth at 10^-5 M after 48 hrs by SRB assay; details: UACC-257, 48 h, read-out: Activity
K562 [8] = experiment: Cytotoxicity against human K562 cells assessed as cell growth at 10^-6 M after 48 hrs by SRB assay; details: K562, 48 h, read-out: Activity
SF-539 = experiment: Cytotoxicity against human SF539 cells assessed as cell growth at 10^-5 M after 48 hrs by SRB assay; details: SF-539, 48 h, read-out: Activity
K562 [9] = experiment: Cytotoxicity against human K562 cells assessed as cell growth at 10^-8 M after 48 hrs by SRB assay; details: K562, 48 h, read-out: Activity
OVCAR-3 = experiment: Cytotoxicity against human OVCAR3 cells assessed as cell growth at 10^-5 M after 48 hrs by SRB assay; details: OVCAR-3, 48 h, read-out: Activity
DU-145 = experiment: Cytotoxicity against human DU145 cells assessed as cell growth at 10^-5 M after 48 hrs by SRB assay; details: DU-145, 48 h, read-out: Activity
SF-268 [10] = experiment: Cytotoxicity against human SF268 cells assessed as cell growth at 10^-4 M after 48 hrs by SRB assay; details: SF-268, 48 h, read-out: Activity
NCI-H322M [11] = experiment: Cytotoxicity against human NCI-H322M cells assessed as cell growth at 10^-8 M after 48 hrs by SRB assay; details: read-out: Activity
SN12C [12] = experiment: Cytotoxicity against human SN12C cells assessed as cell growth at 10^-6 M after 48 hrs by SRB assay; details: read-out: Activity
KM12 = experiment: Cytotoxicity against human KM12 cells assessed as cell growth at 10^-5 M after 48 hrs by SRB assay; details: KM12, 48 h, read-out: Activity
[13] = Cytotoxicity against human OVCAR4 cells assessed as cell growth at 10^-5 M after 48 hrs by SRB assay; details: OVCAR-4, 48 h, read-out: Activity
MDA-MB-468 [14] = experiment: Cytotoxicity against human MDA-MB-468 cells after 48 hrs by SRB assay; details: MDA-MB-468, 48 h
SF-268 [15] = experiment: Cytotoxicity against human SF268 cells assessed as cell growth at 10^-8 M after 48 hrs by SRB assay; details: SF-268, 48 h, read-out: Activity
IGROV-1 = experiment: Cytotoxicity against human IGROV1 cells assessed as cell growth at 10^-5 M after 48 hrs by SRB assay; details: IGROV-1, 48 h, read-out: Activity
U-251 = experiment: Cytotoxicity against human U251 cells assessed as cell growth at 10^-5 M after 48 hrs by SRB assay; details: U-251, 48 h, read-out: Activity
PC-3 [16] = experiment: Cytotoxicity against human PC3 cells assessed as cell growth at 10^-5 M after 48 hrs by SRB assay; details: PC-3, 48 h, read-out: Activity
PC-3 [17] = experiment: Cytotoxicity against human PC3 cells assessed as cell growth at 10^-8 M after 48 hrs by SRB assay; details: PC-3, 48 h, read-out: Activity
M14 = experiment: Cytotoxicity against human M14 cells assessed as cell growth at 10^-5 M after 48 hrs by SRB assay; details: M14, 48 h, read-out: Activity
RXF 393 = experiment: Cytotoxicity against human RXF393 cells assessed as cell growth at 10^-5 M after 48 hrs by SRB assay; details: RXF 393, 48 h, read-out: Activity
SN12C [18] = experiment: Cytotoxicity against human SN12C cells assessed as cell growth at 10^-5 M after 48 hrs by SRB assay; details: read-out: Activity
NCI-H226 = experiment: Cytotoxicity against human NCI-H226 cells assessed as cell growth at 10^-6 M after 48 hrs by SRB assay; details: NCI-H226, 48 h, read-out: Activity
CAKI-1 = experiment: Cytotoxicity against human Caki1 cells assessed as cell growth at 10^-5 M after 48 hrs by SRB assay; details: CAKI-1, 48 h, read-out: Activity
SW-620 = experiment: Cytotoxicity against human SW620 cells assessed as cell growth at 10^-7 M after 48 hrs by SRB assay; details: SW-620, 48 h, read-out: Activity
SK-MEL-5 = experiment: Cytotoxicity against human SK-MEL-5 cells assessed as cell growth at 10^-5 M after 48 hrs by SRB assay; details: SK-MEL-5, 48 h, read-out: Activity
NCI-H522 = experiment: Cytotoxicity against human NCI-H522 cells assessed as cell growth at 10^-4 M after 48 hrs by SRB assay; details: NCI-H522, 48 h, read-out: Activity
SK-MEL-28 = experiment: Cytotoxicity against human SK-MEL-28 cells assessed as cell growth at 10^-5 M after 48 hrs by SRB assay; details: SK-MEL-28, 48 h, read-out: Activity

## C=CCn1c(C)nc2ccc(Nc3nc(Nc4ccc(F)cc4)nc4ccccc34)cc21
SF-295
  growth at 1 µM: 91%
CCRF-CEM
  GI50: 3.01 µM
  LC50: > 100 µM
  TGI: 11.7 µM
HCT-15
  growth at 10 µM: 1%
[1]
  GI50: 9.83 µM
  LC50: > 100 µM
  TGI: 56.7 µM
[2]
  growth at 10 µM: 50%
MDA-MB-468 [3]
  growth at 0.1 µM: 74%
HL-60(TB)
  growth at 10 µM: 26%
HT-29
  growth at 10 µM: 5%
NCI-H322M [4]
  GI50: 6.16 µM
  LC50: 55.1 µM
  TGI: 21.5 µM
K562 [5]
  growth at 100 µM: -41%
NCI-H322M [6]
  growth at 10 µM: 41%
NCI-H23
  growth at 10 µM: 28%
SR
  growth at 10 µM: -27%
[7]
  growth at 10 µM: 66%
K562 [8]
  growth at 1 µM: 96%
SF-539
  growth at 10 µM: 64%
K562 [9]
  growth at 0.01 µM: 102%
OVCAR-3
  growth at 10 µM: 30%
DU-145
  growth at 10 µM: 47%
SF-268 [10]
  growth at 100 µM: -59%
NCI-H322M [11]
  growth at 0.01 µM: 87%
SN12C [12]
  growth at 1 µM: 81%
KM12
  growth at 10 µM: 22%
[13]
  growth at 10 µM: -26%
MDA-MB-468 [14]
  GI50: 1230 nM
  TGI: 2600 nM
SF-268 [15]
  growth at 0.01 µM: 88%
IGROV-1
  growth at 10 µM: 39%
U-251
  growth at 10 µM: 17%
PC-3 [16]
  growth at 10 µM: 16%
PC-3 [17]
  growth at 0.01 µM: 98%
M14
  growth at 10 µM: 8%
RXF 393
  growth at 10 µM: -92%
SN12C [18]
  growth at 10 µM: 11%
NCI-H226
  growth at 1 µM: 87%
CAKI-1
  growth at 10 µM: 42%
SW-620
  growth at 0.1 µM: 95%
SK-MEL-5
  growth at 10 µM: -100%
NCI-H522
  growth at 100 µM: -58%
SK-MEL-28
  growth at 10 µM: -91%

## C=CCn1c(C)nc2cc(Nc3nc(NCCO)nc4ccccc34)ccc21
HCT-15
  growth at 10 µM: 105%
[2]
  growth at 10 µM: 77.5%
HL-60(TB)
  growth at 10 µM: 93.8%
HT-29
  growth at 10 µM: 64.5%
NCI-H322M [6]
  growth at 10 µM: 91.3%
NCI-H23
  growth at 10 µM: 81.9%
SR
  growth at 10 µM: 68.8%
[7]
  growth at 10 µM: 97.7%
SF-539
  growth at 10 µM: 94.8%
OVCAR-3
  growth at 10 µM: 94.8%
DU-145
  growth at 10 µM: 98.8%
KM12
  growth at 10 µM: 73.1%
[13]
  growth at 10 µM: 65.2%
IGROV-1
  growth at 10 µM: 95.3%
U-251
  growth at 10 µM: 90.9%
PC-3 [16]
  growth at 10 µM: 69.2%
M14
  growth at 10 µM: 93.3%
RXF 393
  growth at 10 µM: 97.5%
SN12C [18]
  growth at 10 µM: 84.7%
CAKI-1
  growth at 10 µM: 93%
SK-MEL-5
  growth at 10 µM: 75.4%
SK-MEL-28
  growth at 10 µM: 101%

## C=CCn1c(C)nc2cc(Nc3nc(Nc4ccc5nc(C)n(CC=C)c5c4)nc4ccccc34)ccc21
HCT-15
  growth at 10 µM: 107%
[2]
  growth at 10 µM: 100%
HL-60(TB)
  growth at 10 µM: 84%
HT-29
  growth at 10 µM: 103%
NCI-H322M [6]
  growth at 10 µM: 109%
NCI-H23
  growth at 10 µM: 94.2%
SR
  growth at 10 µM: 106%
[7]
  growth at 10 µM: 102%
SF-539
  growth at 10 µM: 98.6%
OVCAR-3
  growth at 10 µM: 108%
DU-145
  growth at 10 µM: 115%
KM12
  growth at 10 µM: 109%
[13]
  growth at 10 µM: 99.5%
IGROV-1
  growth at 10 µM: 102%
U-251
  growth at 10 µM: 94.4%
PC-3 [16]
  growth at 10 µM: 95.8%
M14
  growth at 10 µM: 109%
RXF 393
  growth at 10 µM: 124%
SN12C [18]
  growth at 10 µM: 96.5%
CAKI-1
  growth at 10 µM: 101%
SK-MEL-5
  growth at 10 µM: 99.7%
SK-MEL-28
  growth at 10 µM: 106%

## C=CCn1c(C)nc2ccc(Nc3nc(Sc4ccc(N)cc4)nc4ccccc34)cc21
HCT-15
  growth at 10 µM: 96.5%
[2]
  growth at 10 µM: 98.1%
HL-60(TB)
  growth at 10 µM: 98.8%
HT-29
  growth at 10 µM: 97.3%
NCI-H322M [6]
  growth at 10 µM: 102%
NCI-H23
  growth at 10 µM: 101%
SR
  growth at 10 µM: 90.8%
[7]
  growth at 10 µM: 110%
SF-539
  growth at 10 µM: 108%
OVCAR-3
  growth at 10 µM: 106%
DU-145
  growth at 10 µM: 114%
KM12
  growth at 10 µM: 96.8%
[13]
  growth at 10 µM: 88.5%
IGROV-1
  growth at 10 µM: 102%
U-251
  growth at 10 µM: 91.3%
PC-3 [16]
  growth at 10 µM: 81.1%
M14
  growth at 10 µM: 109%
RXF 393
  growth at 10 µM: 144%
SN12C [18]
  growth at 10 µM: 93.9%
CAKI-1
  growth at 10 µM: 90.5%
SK-MEL-5
  growth at 10 µM: 84.1%
SK-MEL-28
  growth at 10 µM: 104%
